Marks after values point to notes of the source that are not given here.
Tests used:
[1] = tested on: PREP-catalyzed α-synuclein dimerization in N2A cells; test: αSyn dimerization, protein fragment complementation assay (PCA) in N2A cells; type: cell-based; settings: 10 μM; for decrease of aSyn dimerization compared to DMSO control: PCA, Figure S1A, % decrease
Description: The effect of the compounds on autophagy was determined by using GFP-LC3B-RFP expressing HEK-293 cells.[15],[34] The effect on αSyn dimerization was evaluated with a protein fragment complementation assay (PCA) by using N2A cells.[10],[15],[16] The increase in autophagic flux was measured as a decrease in GFP signal due to increased degradation of GFP-LC3B, and the decrease in αSyn dimerization was measured as a decrease in luminescence, both compared with DMSO (Table 1). […] Rapamycin and starvation are known to induce autophagy, lowering the fluorescence to 65–70% in our assays, and were therefore used as reference compounds for this. Test compounds were assayed at 10 μM concentration with 0.1% DMSO. A graphical representation of the mean values (± SEM) can be seen in the Supporting Information (Figure S1).
Measuring biological activity […]
α-Synuclein Dimerization. αSyn dimerization was assessed by using PCA, which was carried out as described previously in Kilpeläinen et al.1 In short, N2A cells were seeded on poly-L-lysine-coated 96-well plates (Isoplate™ white wall, PerkinElmer Life Sciences) at the density of 13 000 cells/well. 24 h post-plating, reporter plasmids were transfected with 100 ng of total plasmid DNA per well. N2A cells were transfected with 25 ng of both αSyn-Gluc1 and αSyn-Gluc2 and 50 ng mock-plasmid or non-tagged human PREP expression plasmid 50 ng/well. Lipofectamine 3000 (Thermo Fischer Scientific) was used as the transfection reagent. 100 µL normal growth medium was added to all wells at 24 h post-transfection. 48 hours post-transfection medium was changed to phenol red free DMEM without serum containing the tested compounds at 10 µM concentration, with 0,1% DMSO as vehicle control. Proteasome inhibitors lactacystin (AG Scientific) at 10 µM and MG-132 (Enzo Life Sciences) at 10 µM served as a positive control. The PCA signal was assessed by injecting 25 µL of native coelenterazine (Nanolight Technology) in phenol red free DMEM per well (final concentration 6 µM). The emitted luminescence was read using Varioskan LUX multimode microplate reader (Thermo Scientific). For each experimental condition, 4 replicate wells were used in each experiment, and at least 3 separate experiments for each treatment except for 15c which had 2 separate experiments. […]

[2] = tested on: PREP-catalyzed α-synuclein dimerization in N2A cells; settings: luminescence signal percentage of DMSO control with SEM, ref Kilpeläinen et al.[16]; cited from earlier work
[3] = tested on: GFP-LC3B-RFP expressing HEK-293 cells; test: Autophagic flux, GFP signal in GFP-LC3B-RFP expressing HEK-293 cells; type: cell-based; settings: for effect on autophagy (in words) / activity at 10 µM: 10 μM; for activity at 10 µM: Homo sapiens, HEK293, GFP signal percentage of DMSO control with SEM, HEK-293 cells, read-out: autophagy at 10 μM (%)
[4] = target: T1, purified recombinant porcine PREP (Sus scrofa, UniProt P23687); parameters: method as in Kilpeläinen et al.[16]; settings: 95% CI in brackets, ref Kilpeläinen et al.[16]; cited from earlier work
T1 construct: made in house; host or cells: E. coli

[5] = target: T1, purified recombinant porcine PREP; test: Inhibition of the proteolytic activity of PREP, microplate assay with Suc-Gly-Pro-AMC substrate; type: biochemical; settings: recombinant porcine PREP
Description: Inhibition of the proteolytic activity (IC50) of PREP was determined using purified recombinant porcine PREP[25] as previously described.[16]
Measuring biological activity
Inhibitory Activity. The IC 50 values for compounds were determined in the microplate assay procedure described in Kilpeläinen et al.1 Porcine PREP cDNA was expressed in E.coli cells and purified as described in Venäläinen et al.3 The enzyme dilution was preincubated with 0.1 M sodium–potassium phosphate buffer (75 µL, pH 7.0) containing the compounds at desired concentrations in 30 °C for 30 min. The final concentration of the compounds in the assay mixture varied from 1 mM-1 nM and the final concentration of the enzyme was approximately 0.1 nM as measured by Bradford´s method. The enzyme reaction was carried out by adding 25 µL of 4 mM Suc-Gly-Pro-AMC substrate dissolved in 0.1 M sodium–potassium phosphate buffer (pH 7.0) into the assay mixture and incubating at 30° C for 60 min. The reaction was terminated by adding […] of 1 M sodium acetate buffer (pH 4.2). Formation of AMC was measured with Victor2 multilabel counter (PerkinElmer; excitation/emission 360 nm/ 460 nm), with a standard curve of 0.1-5 nM AMC in 0.1 M sodium–potassium phosphate buffer present. All activity measurements were made at least in triplicate. The inhibitory activities (percent of control) were plotted against the log concentration of the compound, and the IC50-value was determined by non-linear regression utilizing GraphPad Prism 7.0 software. […]

[6] = tested on: GFP-LC3B-RFP expressing HEK-293 cells; parameters: method as in Kilpeläinen et al.[15]; settings: GFP signal percentage of DMSO control with SEM, ref Kilpeläinen et al.[15]; cited from earlier work

T1 sequence (P23687 whole entry): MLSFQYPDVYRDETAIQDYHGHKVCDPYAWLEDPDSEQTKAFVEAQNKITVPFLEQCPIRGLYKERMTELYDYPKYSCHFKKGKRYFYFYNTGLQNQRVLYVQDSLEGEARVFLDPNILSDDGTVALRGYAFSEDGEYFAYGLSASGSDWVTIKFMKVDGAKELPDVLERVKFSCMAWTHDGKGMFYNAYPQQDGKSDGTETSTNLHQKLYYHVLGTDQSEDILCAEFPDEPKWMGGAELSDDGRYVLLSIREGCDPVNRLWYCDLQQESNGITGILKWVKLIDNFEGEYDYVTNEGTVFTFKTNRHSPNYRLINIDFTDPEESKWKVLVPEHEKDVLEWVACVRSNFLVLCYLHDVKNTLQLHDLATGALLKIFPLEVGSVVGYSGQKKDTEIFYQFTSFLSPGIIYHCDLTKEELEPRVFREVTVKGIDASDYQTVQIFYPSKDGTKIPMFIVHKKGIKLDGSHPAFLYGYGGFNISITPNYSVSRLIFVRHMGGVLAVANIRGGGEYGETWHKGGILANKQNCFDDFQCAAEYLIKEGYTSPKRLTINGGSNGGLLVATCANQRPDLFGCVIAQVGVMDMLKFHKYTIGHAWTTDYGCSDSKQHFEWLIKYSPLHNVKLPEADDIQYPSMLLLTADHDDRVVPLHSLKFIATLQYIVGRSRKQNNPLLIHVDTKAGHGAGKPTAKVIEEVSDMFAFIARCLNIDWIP

Row | Compound | decrease of aSyn dimerization compared to DMSO control [1] [%] | α-synuclein dimerization at 10 μM (%) [2] | effect on autophagy (in words) [3] | activity at 10 µM ([3]; 24 h) [%] | decrease in autophagic flux assay GFP signal compared to DMSO control ([3]; 10 µM, 24 h, Figure S1B, % decrease) [%] | IC50 [4] [nM] | effect on αSyn dimerization (in words) [1] | activity at 10 µM ([1]; Mus musculus, luminescence signal percentage of DMSO control with SEM, N2A cells) [%] | IC50 value (in words) [5] | autophagy at 10 μM (%) [6]
1 | O=C(CCCc1ccccc1)N1CCC[C@H]1C(=O)N1CCC[C@H]1c1nnn[nH]1 [Compound 1a] | 23 | 82 ^e (6.8) % | no significant activity | 92 |  |  |  |  |  | 
2 | C[C@H](NC(=O)CCCc1ccccc1)C(=O)N1CCC[C@H]1c1nnn[nH]1 [Compound 1b] | 25 | 75 ^e (4.9) % | effective at inducing autophagy | 71 | 29 |  |  |  |  | 
3 | CN(CC(=O)N1CCC[C@H]1c1nnn[nH]1)C(=O)CCCc1ccccc1 [Compound 1c] |  | 75 ^e (7.7) % | some effect | 84 |  |  |  |  |  | 
4 | C[C@@H](C(=O)N1CCC[C@H]1c1nnn[nH]1)N(C)C(=O)CCCc1ccccc1 [Compound 1d] |  | 75 ^e (7.3) % | no significant activity | 93 |  |  |  |  |  | 
5 | O=C(CCCc1ccccc1)NCC(=O)N1CCC[C@H]1c1nnn[nH]1 [Compound 1e] |  | 77 ^e (6.2) % | no significant activity | 90 |  | 210000 |  |  |  | 
6 | O=C(CCCc1ccccc1)N1CCC[C@H]1C(=O)N1CCC[C@H]1c1ccn[nH]1 [Compound 30a] |  |  | some minor activity in modulating autophagy | 89 |  |  | no activity on αSyn dimerization | 99 | micromolar range | 
7 | N#C[C@@H]1CCCN1C(=O)[C@@H]1CCCN1C(=O)CCCc1ccccc1 [KYP-2047] |  |  |  |  |  |  |  |  |  | 89 ^d (3.4) %
